The text below walks through data of patent US20070185116A1, “Bicyclic compounds” (TANABE SEIYAKU CO., LTD., priority 2004, published 2007).

Assay [1] deals with isolated rabbit urinary bladder. In words: Relaxation effect on potassium-induced contraction of isolated rabbit urinary bladder. The class given is cell-based. Conditions: Oryctolagus cuniculus; strips pre-contracted with high-K+ (30 mM) Krebs solution; relaxation as percentage of maximum relaxation by 10^-4 M papaverine; read-out: IC50 value (50% relaxation concentration). The protocol:
[Relaxation Effect on Potassium-Induced Contraction of Isolated Rabbit Urinary Bladder]
Urinary bladder was isolated from Male NZW rabbits (body weight: 2.0-3.5 kg) and immersed in ice-cold Krebs-bicarbonate solution (in mM: 118 NaCl, 4.7 KCl, 2.55 CaCl2, 1.18 MgSO4, 1.18 KH2PO4, 24.88 NaHCO3 and 11.1 glucose). The urinary bladder was cut into longitudinal strips (5 mm length, 3-4 mm width) after mucosal layer was removed.
Preparations were mounted in organ baths containing 10 ml of Krebs solution maintained at 37° C. and gassed with 95% O2/5% CO2. Accordingly, preparations were stretched with an initial tension of 2.0±1.0 g, and changes in isometric tension were measured by force-displacement transducer. The preparations were pre-contracted by changing organ-bath solution into high-K^+ (30 mM) Krebs solution (in mM: 118 NaCl, […], 2.55 CaCl2, 1.18 MgSO4, 1.18 KH2PO4, 24.88 NaHCO3 and 11.1 glucose).
After stable tension was obtained, compounds were added into organ baths cumulatively (10^−8 M-10^−4 M). The effects of compounds were expressed as a percentage of the maximum relaxation produced by 10^−4 M papaverine as 100%. 50% relaxation concentration (IC50) was calculated and IC50 value range (μM) of compounds of the present invention was shown in the following Table 1 with a rank of A, B or C.
These ranges are as mentioned below.

Assay [2] concerns rhythmic bladder contractions induced by substance P. In words: Inhibitory effect on the rhythmic bladder contractions induced by substance P in anesthetized rats. Format: in vivo, rat. Conditions: 0.25 mg/kg, intravenous administration; urethane-anesthetized female Sprague-Dawley rats; observed for 35 minutes.

In the case of `Cc1ccc(-c2ncc(Cl)cc2-c2ccc(C(N)=O)cc2)cn1` [Example 1], the IC50 in assay [1] lay within 0.5 to 1 µM. For the same molecule, the “100% inhibition time: Time (min) during which the frequency of the rhythmic contraction had been completely inhibited” value in assay [2] came out at 20.5 min.
For `Cc1ccccc1-c1ncc(Cl)cc1-c1ccc(C(N)=O)cc1` [Example 43], in that order: 0.5 to 1 µM and >35 min.
